In ChEMBL document CHEMBL1201862, “PubChem BioAssay data set” (2004):
Active and inactive are the calls of the source.

Columns and labels:
[1] = growth suppression of PTEN-null colon cells, dose response, cell-based, HCT116 PTEN knockout (AID 1047); type: functional;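 further: HCT116 colon tumor cells with PTEN knocked out; cells exposed to compound for 60 hours before readout; potency for loss of cell viability measured by luminescence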
[2] = growth suppression of beta-catenin-knockout colon cells, dose response, cell-based, HCT116, human colon tumor (AID 1045); type: functional;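 further: HCT116 colon tumor cells with beta catenin knocked out; cells exposed to compound for 60 hours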
[3] = molecular target: T1, Heat shock factor protein 1 (Mus musculus, UniProt P38532); assay: HSF1 potentiators in luciferase reporter cells, confirmation, cell-based, NIH3T3, luminescence, dose retest (AID 435004); type: functional;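 further: stress induced by proteasome inhibitor MG132 added 30 min after compound; luciferase reporter driven by HSF1 response element in NIH3T3 cells; actives raise luminescence as potentiators of the MG132 stress response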
T1 sequence (P38532 whole entry): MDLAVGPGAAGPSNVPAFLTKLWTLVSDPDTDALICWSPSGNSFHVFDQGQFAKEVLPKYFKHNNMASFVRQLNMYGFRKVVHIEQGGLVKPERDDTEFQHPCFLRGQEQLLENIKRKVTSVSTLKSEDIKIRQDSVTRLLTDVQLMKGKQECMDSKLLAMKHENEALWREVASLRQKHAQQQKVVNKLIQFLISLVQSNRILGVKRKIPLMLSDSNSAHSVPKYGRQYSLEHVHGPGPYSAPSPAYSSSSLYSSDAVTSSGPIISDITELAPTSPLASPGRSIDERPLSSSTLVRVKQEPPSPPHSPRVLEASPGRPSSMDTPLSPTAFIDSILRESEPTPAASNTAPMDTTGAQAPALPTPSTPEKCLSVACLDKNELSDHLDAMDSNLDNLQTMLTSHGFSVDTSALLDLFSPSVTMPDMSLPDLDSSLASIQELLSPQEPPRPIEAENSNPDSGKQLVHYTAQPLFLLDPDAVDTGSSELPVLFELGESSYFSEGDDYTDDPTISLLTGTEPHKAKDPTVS

[4] = molecular target: T2, Oxysterols receptor LXR-beta (Homo sapiens, UniProt P55055); type: functional, cell-based;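 further: agonist activity at LXR measured by a cell-based luminescence readout across a dose range, run as a counterscreen for daf-12 agonists; HEK293 cells with Gal4-LXR fusion and GAL4-driven luciferase reporter; potency for activation of Gal4-LXR reporter so compounds are agonists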
T2 sequence (P55055 whole entry): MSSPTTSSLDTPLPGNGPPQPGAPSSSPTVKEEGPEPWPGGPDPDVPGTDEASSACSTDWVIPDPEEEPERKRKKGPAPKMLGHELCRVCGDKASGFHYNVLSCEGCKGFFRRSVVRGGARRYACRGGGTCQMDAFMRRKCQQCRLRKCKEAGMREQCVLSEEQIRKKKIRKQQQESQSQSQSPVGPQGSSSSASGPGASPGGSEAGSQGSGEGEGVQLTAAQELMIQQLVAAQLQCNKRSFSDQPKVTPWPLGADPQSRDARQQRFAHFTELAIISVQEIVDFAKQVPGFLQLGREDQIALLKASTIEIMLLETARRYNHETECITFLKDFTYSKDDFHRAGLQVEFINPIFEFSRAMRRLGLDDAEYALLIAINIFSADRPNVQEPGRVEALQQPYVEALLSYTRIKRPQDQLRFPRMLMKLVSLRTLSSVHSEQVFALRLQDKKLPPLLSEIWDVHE

[5] = molecular target: T3, Caspase-3 (Homo sapiens, UniProt P42574); type: functional;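 further: Dose-response selectivity test against caspase-3 for candidate inhibitors of sentrin-specific proteases (SENPs)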
T3 sequence (P42574 whole entry): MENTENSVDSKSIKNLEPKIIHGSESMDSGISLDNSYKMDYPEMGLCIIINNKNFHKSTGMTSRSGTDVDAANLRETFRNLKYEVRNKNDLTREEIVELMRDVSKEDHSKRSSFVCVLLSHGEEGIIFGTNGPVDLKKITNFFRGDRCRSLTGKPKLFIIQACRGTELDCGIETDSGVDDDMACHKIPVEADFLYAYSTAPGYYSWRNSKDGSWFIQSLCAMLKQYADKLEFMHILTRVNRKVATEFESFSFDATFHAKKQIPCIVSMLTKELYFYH

[6] = molecular target: T4, Sentrin-specific protease 7 (Homo sapiens, UniProt Q9BQF6); type: functional;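 further: Luminescence-based dose-response confirmation of ultra-high-throughput screening hits, measuring inhibition of SENP7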
T4 sequence (Q9BQF6 whole entry): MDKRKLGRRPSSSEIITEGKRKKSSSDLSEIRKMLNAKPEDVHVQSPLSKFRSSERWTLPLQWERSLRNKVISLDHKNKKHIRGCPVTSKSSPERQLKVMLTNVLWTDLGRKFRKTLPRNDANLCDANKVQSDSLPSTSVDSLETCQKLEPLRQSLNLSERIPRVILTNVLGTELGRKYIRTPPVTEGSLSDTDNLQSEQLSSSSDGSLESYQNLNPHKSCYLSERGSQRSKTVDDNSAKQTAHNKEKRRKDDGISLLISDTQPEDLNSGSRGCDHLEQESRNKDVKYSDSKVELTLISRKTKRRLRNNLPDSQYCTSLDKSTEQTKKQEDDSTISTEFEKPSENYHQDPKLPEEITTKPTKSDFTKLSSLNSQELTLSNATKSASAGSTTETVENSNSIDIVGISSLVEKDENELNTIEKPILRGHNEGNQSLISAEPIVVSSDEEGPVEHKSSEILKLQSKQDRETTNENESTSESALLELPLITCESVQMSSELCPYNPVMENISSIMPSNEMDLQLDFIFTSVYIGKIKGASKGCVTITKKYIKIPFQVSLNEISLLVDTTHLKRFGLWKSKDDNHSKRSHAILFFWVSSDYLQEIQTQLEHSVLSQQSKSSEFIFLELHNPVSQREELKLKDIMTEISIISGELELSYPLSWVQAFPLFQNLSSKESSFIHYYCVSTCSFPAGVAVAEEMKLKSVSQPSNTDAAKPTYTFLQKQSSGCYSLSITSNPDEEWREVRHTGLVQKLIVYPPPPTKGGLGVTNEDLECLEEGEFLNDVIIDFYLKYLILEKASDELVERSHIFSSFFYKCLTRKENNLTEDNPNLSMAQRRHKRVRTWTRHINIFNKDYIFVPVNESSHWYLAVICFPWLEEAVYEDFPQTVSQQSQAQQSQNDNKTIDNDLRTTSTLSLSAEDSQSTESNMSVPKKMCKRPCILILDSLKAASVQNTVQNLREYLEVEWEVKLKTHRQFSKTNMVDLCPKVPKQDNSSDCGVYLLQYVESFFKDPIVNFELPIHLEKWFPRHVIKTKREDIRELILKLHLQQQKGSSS

[7] = molecular target: T5, Sentrin-specific protease 6 (Homo sapiens, UniProt Q9GZR1); type: functional;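 further: Luminescence-based dose-response confirmatory assay of SENP6 inhibition, following up an ultra-high-throughput screen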
T5 sequence (Q9GZR1 whole entry): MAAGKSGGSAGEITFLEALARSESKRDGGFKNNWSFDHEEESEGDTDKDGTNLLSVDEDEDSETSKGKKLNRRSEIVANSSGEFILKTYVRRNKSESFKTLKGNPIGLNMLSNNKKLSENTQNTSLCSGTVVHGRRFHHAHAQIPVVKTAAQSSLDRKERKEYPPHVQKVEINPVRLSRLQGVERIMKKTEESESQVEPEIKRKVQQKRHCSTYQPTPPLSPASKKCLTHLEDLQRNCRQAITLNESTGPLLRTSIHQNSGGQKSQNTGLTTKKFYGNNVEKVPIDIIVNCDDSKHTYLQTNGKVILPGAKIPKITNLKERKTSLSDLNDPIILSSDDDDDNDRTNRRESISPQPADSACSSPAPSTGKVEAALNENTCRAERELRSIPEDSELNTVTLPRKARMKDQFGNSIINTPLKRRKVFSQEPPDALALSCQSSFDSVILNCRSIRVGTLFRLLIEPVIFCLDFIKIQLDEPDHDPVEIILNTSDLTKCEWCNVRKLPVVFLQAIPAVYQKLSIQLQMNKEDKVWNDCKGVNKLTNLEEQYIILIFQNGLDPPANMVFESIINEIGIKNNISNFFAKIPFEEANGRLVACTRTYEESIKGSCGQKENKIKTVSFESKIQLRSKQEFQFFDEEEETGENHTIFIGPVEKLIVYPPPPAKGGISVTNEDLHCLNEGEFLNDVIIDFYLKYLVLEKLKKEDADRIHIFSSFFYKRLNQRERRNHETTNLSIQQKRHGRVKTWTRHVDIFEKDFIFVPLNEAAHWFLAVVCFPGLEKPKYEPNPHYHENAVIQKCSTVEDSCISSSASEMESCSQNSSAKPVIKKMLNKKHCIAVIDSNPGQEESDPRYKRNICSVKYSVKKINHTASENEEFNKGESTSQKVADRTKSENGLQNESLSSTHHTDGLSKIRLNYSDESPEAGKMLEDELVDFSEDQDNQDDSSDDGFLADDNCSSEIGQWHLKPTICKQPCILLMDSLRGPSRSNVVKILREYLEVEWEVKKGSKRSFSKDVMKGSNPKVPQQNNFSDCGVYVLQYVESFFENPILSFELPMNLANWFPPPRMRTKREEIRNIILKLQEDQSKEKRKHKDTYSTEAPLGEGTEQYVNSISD

[8] = molecular target: T6, Sentrin-specific protease 8 (Homo sapiens, UniProt Q96LD8); type: functional;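 further: luminescence read-out of SENP8 inhibition, dose-response confirmation following an ultra-high-throughput screen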
T6 sequence (Q96LD8 whole entry): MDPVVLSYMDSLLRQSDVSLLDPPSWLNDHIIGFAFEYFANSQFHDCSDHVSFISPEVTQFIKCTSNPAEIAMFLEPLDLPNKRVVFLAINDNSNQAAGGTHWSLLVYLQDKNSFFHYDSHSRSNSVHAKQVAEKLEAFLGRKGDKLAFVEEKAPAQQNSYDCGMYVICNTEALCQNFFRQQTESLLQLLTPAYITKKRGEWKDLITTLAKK

O=C(/C=C/c1ccccc1)Nc1nnc(SCC(=O)c2ccc3ccccc3c2)s1
EC50 [1]: 9.17 µM (active) | EC50 [2]: 9.72 µM (active)

Cc1ccc(CN2CCN(CC(C)C)C(CCO)C2)s1 (stereo not given)
EC50 [3]: 98.2 µM (active) | EC50 [4]: > 67.6 µM (inactive)

CCOC(=O)c1c(C)oc2c1cc(O)c1ccccc12
EC50 [4]: > 67.5 µM (inactive)

Cc1cc(C)c(O)c(-c2cc(C(=O)Nc3cccnc3)[nH]n2)c1
IC50 [5]: 31.4 µM (active) | IC50 [6]: 4.68 µM (active) | IC50 [7]: > 100 µM (inactive) | IC50 [8]: > 100 µM (inactive)

c1cncc(-c2noc(-c3ccc4ccccc4c3)n2)c1
EC50 [4]: > 67.5 µM (inactive)

COc1ccc(-n2nc3cc(N)c(Br)cc3n2)cc1
IC50 [5]: 13.3 µM (active) | IC50 [6]: 5.03 µM (active) | IC50 [7]: 8.1 µM (active) | IC50 [8]: 11 µM (active)

Cc1ccc(OCc2nc(-c3cccs3)no2)c([N+](=O)[O-])c1
IC50 [5]: 21.4 µM (active) | IC50 [6]: 5.51 µM (active) | IC50 [7]: 11.9 µM (active) | IC50 [8]: 10.2 µM (active)

Cc1ccc(-c2noc(CSc3ccccc3)n2)cc1
IC50 [5]: 25.5 µM (active) | IC50 [6]: 6.8 µM (active) | IC50 [7]: 36.4 µM (active) | IC50 [8]: 13.7 µM (active)

CC(=O)c1sc(Nc2nc3ccc(F)cc3s2)nc1C
IC50 [5]: 18.8 µM (active) | IC50 [6]: 5.6 µM (active) | IC50 [7]: 11.2 µM (active) | IC50 [8]: 16 µM (active)

CNC(=O)c1ccsc1NC(=O)c1ccc2c(c1)CCCC2
IC50 [5]: 28.4 µM (active) | IC50 [6]: 5.37 µM (active) | IC50 [7]: 8.31 µM (active) | IC50 [8]: 17.9 µM (active)
